Paper PMC4226252, “Biochemical interaction of anti-HCV telaprevir with the ABC transporters P-glycoprotein and breast cancer resistance protein” (BMC Research Notes, 2013)
Values joined by “and” are separate entries in the source; they are usually repeats but may differ in a detail not shown here. Identical values can stand only once. Like-named read-outs stand apart in the source and are kept apart here. Each block holds one compound with its values, some of them ahead of it.

Key:
BCRP [1] = molecular target: T1, BCRP (Homo sapiens, UniProt Q9UNQ0); parameters: expressed in transfected cells; host or cells: K562/BCRP cells (plasma membrane vesicles); method as in PMID 23293300, PMID 22331658; settings: cellular system; cited from earlier work
T1 sequence (Q9UNQ0 1-655): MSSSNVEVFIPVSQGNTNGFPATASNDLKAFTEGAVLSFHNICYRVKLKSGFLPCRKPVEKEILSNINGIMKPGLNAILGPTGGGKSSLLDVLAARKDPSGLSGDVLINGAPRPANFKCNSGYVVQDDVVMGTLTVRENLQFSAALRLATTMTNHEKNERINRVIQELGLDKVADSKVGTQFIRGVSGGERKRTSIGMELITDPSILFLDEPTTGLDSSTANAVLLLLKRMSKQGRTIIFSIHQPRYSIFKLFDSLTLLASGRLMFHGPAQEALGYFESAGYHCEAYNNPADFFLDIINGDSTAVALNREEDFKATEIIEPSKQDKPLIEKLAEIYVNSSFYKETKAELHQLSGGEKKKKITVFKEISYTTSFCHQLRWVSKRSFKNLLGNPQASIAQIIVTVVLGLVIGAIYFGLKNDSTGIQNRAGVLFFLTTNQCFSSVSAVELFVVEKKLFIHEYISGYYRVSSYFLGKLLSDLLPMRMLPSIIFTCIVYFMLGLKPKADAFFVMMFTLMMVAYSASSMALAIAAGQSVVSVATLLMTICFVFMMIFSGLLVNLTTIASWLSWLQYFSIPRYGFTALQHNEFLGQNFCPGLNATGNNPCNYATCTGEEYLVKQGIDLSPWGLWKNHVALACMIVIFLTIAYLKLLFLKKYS

P-gp [2] = molecular target: T2, P-gp (Homo sapiens, UniProt P08183); parameters: expressed in transfected cells; host or cells: K562/MDR cells (plasma membrane vesicles); method as in PMID 23293300, PMID 22331658; settings: cellular system; cited from earlier work
BCRP [3] = molecular target: T1, BCRP; experiment: biochemical; settings: for IC50: IC50 of telaprevir on BCRP-mediated transport; for Ki: Lineweaver-Burk plot, 50 μmol/L telaprevir
Protocol: (§2) Then, they were mixed with [^3H]-labeled VCR (for P-gp) or E1S or MTX (for BCRP), and telaprevir at the indicated concentration in the reaction buffer (0.25 mol/L sucrose, 10 mmol/L HEPES-NaOH (pH 7.4), 10 mmol/L MgCl2, 10 mmol/L phosphocreatine, 100 μg/mL creatine phosphokinase, with or without 3 mmol/L adenosine triphosphate (ATP)) in a total volume of 50 μL. After 10 min of incubation at 25°C, the reaction mixture was stopped by the addition of ice-cold stop solution (0.25 mol/L sucrose, 10 mmol/L HEPES-NaOH (pH 7.4), 0.1 mol/L NaCl) and centrifuged at 18,000 × g for 10 min at 4°C. The pellets were solubilized by a liquid scintillation counter to measure their radioactivity levels. For kinetics analyses, the Michaelis–Menten equation and Lineweaver–Burk plots were applied to visualize the mechanism of transport inhibition, as v = Vmax[S]/([S] + (1 + [I]/Ki)Km), where [S] and [I] are concentrations of substrate and inhibitor respectively, and v is velocity of substrate uptake by transporter.
(§3) A. The ability to transport E1S at telaprevir-absent or -present conditions was determined by measuring the radioactivity of [^3H]-E1S taken up in membrane vesicles. A similar experiment was done for MTX. […] E1S concentration was 50 nmol/L (A) and 50, 100, and 200 nmol/L (B), and of telaprevir was 0, 1, 10, and 100 μmol/L (A) and 50 μmol/L (B), respectively. MTX concentration was 100 nmol/L (A), and 100, 200 and 400 nmol/L (B). Membrane vesicles of K562/BCRP cells were used.

OATP1B1 = settings: cited from earlier work
OCT2 = settings: cited from earlier work
OATP1B = settings: cited from earlier work
MATE1 = settings: cited from earlier work
BCRP [4] = molecular target: T1, BCRP; experiment: Photoaffinity labeling of BCRP with [125I]-IAAP; assay type: binding; parameters: expressed in transfected cells; host or cells: K562/BCRP cells (plasma membrane vesicles); settings: for BCRP band intensity (% of no-inhibitor): human, 10 min, pH 7.4
Protocol: (§1) Photoaffinity labeling assay was done as described previously. In brief, plasma membrane fractions (45 μg protein/sample) were pre-incubated at 4°C for 5 min at the indicated concentration of telaprevir in 0.25 mol/L sucrose solution containing 10 mmol/L HEPES-NaOH (pH 7.4). Then, 5 nmol/L radioactive iodine-labeled IAAP, i.e., [^125I]-IAAP (2200 Ci/mmol), was added and the mixture incubated for an additional 10 min. Samples were kept on ice and illuminated with an ultraviolet lamp (B-100AP; UVP, Upland, CA, USA) at 365 nm for 30 min. These processes were carried out on ice. For the BCRP assay, the labeled BCRP protein was solubilized in a buffer (1% NP-40, 20 mmol/L Tris–HCl (pH 7.4), 150 mmol/L NaCl, 1 mmol/L ethylenediamine tetra-acetic acid (EDTA)) and immunoprecipitated with anti-BCRP antibody BXP-21 (Millipore, Billerica, MA, USA), then solubilized by Laemmli sodium dodecyl sulfate (SDS) buffer. For the P-gp assay, membrane fractions were solubilized directly by Laemmli SDS buffer. Samples were separated by sodium dodecyl sulfate-polyacrylamide gel electrophoresis (SDS-PAGE), and gels were dried. The binding of [^125I]-IAAP with P-gp and BCRP was quantified using a FLA7000 Bioimage Analyzer (Fuji Film, Tokyo, Japan) and Multi-Gauge software (Fuji Film).
Figure 3 Effect of telaprevir on photoaffinity labeling of P-gp and BCRP with [^125I]-IAAP. K562/MDR- or K562/BCRP-vesicles were mixed with the indicated concentrations of telaprevir for 5 min. Vesicles were pre-incubated with 5 nmol/L [^125I]-IAAP (2200 Ci/mmol) for 10 min, and then illuminated with a UV lamp (365 nm) for 30 min. IAAP-labeled protein was solubilized by Laemmli SDS buffer directly (for the P-gp assay) or after immunoprecipitation (for the BCRP assay), and subjected to SDS-PAGE. Signals were visualized and analyzed with a FLA7000 system. The black arrowheads are P-gp or BCRP. […] The binding of [^125I]-IAAP with P-gp and BCRP was calculated from standard curve analysis using a FLA7000 Bioimage Analyzer (Fuji Film, Tokyo, Japan) and Multi-Gauge software (Fuji Film). […] I copied these numbers as results for the inhibitors, although gels and blots are otherwise left out. / The value 0 under the 'K562 vesicle' control lane in panels A and B is left out because it belongs to no substance.

P-gp [5] = molecular target: T2, P-gp
Protocol: as §2
(§4) Figure 1 Effect of telaprevir on the intravesicular transport of vincristine sulfate (VCR) by P-gp. A. The ability to transport VCR in telaprevir-absent or -present conditions was determined by measuring the radioactivity taken up in membrane vesicles. B. Analyses of Lineweaver–Burk plots of inhibition of VCR uptake by P-gp. The VCR concentration was 100 nmol/L (A) and 50, 100, and 200 nmol/L (B), and of telaprevir was 0, 1, 10, and 100 μmol/L (A) and 20 μmol/L (B), respectively. Membrane vesicles from K562/MDR cells were mixed with each concentration of VCR, telaprevir, and 3 mmol/L of ATP in the incubation medium as described in the Methods section. VCR uptake is shown for parental K562 (white column for ATP-absent; gray column for ATP-present) and K562⁄MDR (dark-gray column for ATP-absent; black column for ATP-present) (A) and the inverse is shown for no inhibitor (open rhombus) and with telaprevir (black circle) (B). Results are means ± SD of triplicate (A) or quadruplicate (B) determinations.

BCRP [6] = molecular target: T1, BCRP
Protocol: as §2, §3

OCT1 = settings: cited from earlier work
P-gp [7] = molecular target: T2, P-gp; experiment: biochemical
Protocol: as §2, §4

P-gp [8] = molecular target: T2, P-gp; experiment: Photoaffinity labeling of P-gp with [125I]-IAAP; assay type: binding; parameters: expressed in transfected cells; host or cells: K562/MDR cells (plasma membrane vesicles); settings: for P-gp band intensity (% of no-inhibitor): human, 10 min, pH 7.4
Protocol: as §1
Figure 3 Effect of telaprevir on photoaffinity labeling of P-gp and BCRP with [^125I]-IAAP. K562/MDR- or K562/BCRP-vesicles were mixed with the indicated concentrations of telaprevir for 5 min. Vesicles were pre-incubated with 5 nmol/L [^125I]-IAAP (2200 Ci/mmol) for 10 min, and then illuminated with a UV lamp (365 nm) for 30 min. IAAP-labeled protein was solubilized by Laemmli SDS buffer directly (for the P-gp assay) or after immunoprecipitation (for the BCRP assay), and subjected to SDS-PAGE. Signals were visualized and analyzed with a FLA7000 system. The black arrowheads are P-gp or BCRP. […] The binding of [^125I]-IAAP with P-gp and BCRP was calculated from standard curve analysis using a FLA7000 Bioimage Analyzer (Fuji Film, Tokyo, Japan) and Multi-Gauge software (Fuji Film).

T2 sequence (P08183 whole entry): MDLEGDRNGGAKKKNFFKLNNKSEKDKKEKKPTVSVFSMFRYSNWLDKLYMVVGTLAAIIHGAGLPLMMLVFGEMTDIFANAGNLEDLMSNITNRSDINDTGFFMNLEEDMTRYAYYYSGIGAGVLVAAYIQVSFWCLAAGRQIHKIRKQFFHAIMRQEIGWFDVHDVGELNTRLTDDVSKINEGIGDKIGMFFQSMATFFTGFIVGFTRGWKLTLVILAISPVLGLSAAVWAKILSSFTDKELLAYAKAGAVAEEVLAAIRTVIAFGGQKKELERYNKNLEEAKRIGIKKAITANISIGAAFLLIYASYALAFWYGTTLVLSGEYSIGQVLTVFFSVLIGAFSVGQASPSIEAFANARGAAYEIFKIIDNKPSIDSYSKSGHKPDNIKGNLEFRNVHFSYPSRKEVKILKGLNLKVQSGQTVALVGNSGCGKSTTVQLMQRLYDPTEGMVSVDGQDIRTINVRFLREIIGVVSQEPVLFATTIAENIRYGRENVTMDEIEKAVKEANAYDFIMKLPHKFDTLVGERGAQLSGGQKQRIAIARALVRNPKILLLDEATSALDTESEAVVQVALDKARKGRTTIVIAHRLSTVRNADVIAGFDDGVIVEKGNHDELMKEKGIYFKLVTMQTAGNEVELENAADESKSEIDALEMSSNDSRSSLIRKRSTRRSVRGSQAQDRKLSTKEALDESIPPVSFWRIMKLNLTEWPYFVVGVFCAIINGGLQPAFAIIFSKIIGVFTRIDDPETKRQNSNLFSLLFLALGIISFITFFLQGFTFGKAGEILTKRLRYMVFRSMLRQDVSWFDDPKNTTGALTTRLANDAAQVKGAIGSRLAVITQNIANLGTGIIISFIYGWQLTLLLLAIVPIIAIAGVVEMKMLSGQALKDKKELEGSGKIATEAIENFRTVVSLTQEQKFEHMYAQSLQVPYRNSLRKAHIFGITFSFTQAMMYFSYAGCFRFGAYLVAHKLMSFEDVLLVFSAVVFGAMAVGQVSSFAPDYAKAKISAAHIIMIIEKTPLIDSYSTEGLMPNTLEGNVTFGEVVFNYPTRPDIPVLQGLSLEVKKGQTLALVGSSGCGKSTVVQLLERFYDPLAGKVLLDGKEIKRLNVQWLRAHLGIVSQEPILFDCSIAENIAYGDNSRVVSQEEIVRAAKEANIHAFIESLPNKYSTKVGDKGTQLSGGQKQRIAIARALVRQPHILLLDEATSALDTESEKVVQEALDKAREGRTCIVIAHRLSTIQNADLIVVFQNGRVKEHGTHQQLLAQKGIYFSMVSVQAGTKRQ

Compound: CC(C)(C)NC(=O)N[C@H](C(=O)N1C[C@H]2[C@@H]([C@H]1C(=O)NC(CC1CCC1)C(=O)C(N)=O)C2(C)C)C(C)(C)C (stereo partly drawn) [boceprevir]
IC50 (BCRP [1]): ~80 µM
Inhibitory effect on P-gp (P-gp [2]): very low

IC50 (BCRP [3]; substrate E1S, K562/BCRP vesicles): 30 µM
IC50 (BCRP [3]; substrate MTX, K562/BCRP vesicles): 31 µM
IC50 (BCRP [3]; substrate not specified): ~30 µM
Ki (BCRP [3]; BCRP-mediated E1S transport): 44 µM and 44.4 µM
Ki (BCRP [3]; BCRP-mediated MTX transport): 94.8 µM
IC50 (BCRP [4]): > 80 µM
BCRP band intensity (% of no-inhibitor) (BCRP [4]; 5 μmol/L): 95 % of no-inhibitor
BCRP band intensity (% of no-inhibitor) (BCRP [4]; 20 μmol/L): 72 % of no-inhibitor
BCRP band intensity (% of no-inhibitor) (BCRP [4]; 80 μmol/L): 58 % of no-inhibitor
Inhibitory mode (P-gp [5]): competitive
Vmax (P-gp [5]; human, 10 min, 20 μmol/L, pH 7.4): 7.1 pmol/mg/10 min
Inhibitory mode (BCRP [6]): competitive
Ki (P-gp [7]): 4.8 µM
IC50 (P-gp [7]; IC50 of telaprevir on P-gp-mediated transport, substrate VCR, K562/MDR vesicles): ~7 µM and 7 µM
IC50 (P-gp [8]; IC50 on [125I]-IAAP binding with P-gp, K562/MDR vesicles, 5 nmol/L [125I]-IAAP): 16.5 µM
P-gp band intensity (% of no-inhibitor) (P-gp [8]; 2.5 μmol/L): 85 % of no-inhibitor
P-gp band intensity (% of no-inhibitor) (P-gp [8]; 5 μmol/L): 71 % of no-inhibitor
P-gp band intensity (% of no-inhibitor) (P-gp [8]; 10 μmol/L): 64 % of no-inhibitor
P-gp band intensity (% of no-inhibitor) (P-gp [8]; 20 μmol/L): 47 % of no-inhibitor
P-gp band intensity (% of no-inhibitor) (P-gp [8]; 40 μmol/L): 30 % of no-inhibitor
Compound: CCC[C@H](NC(=O)[C@@H]1[C@H]2CCC[C@H]2CN1C(=O)[C@@H](NC(=O)[C@@H](NC(=O)c1cnccn1)C1CCCCC1)C(C)(C)C)C(=O)C(=O)NC1CC1 [telaprevir]
IC50 (OATP1B1): 2.2 µM
IC50 (OCT2): 6.4 µM
IC50 (OATP1B): 36.8 µM
IC50 (MATE1): 23 µM
IC50 (OCT1): 20.7 µM
